# Tests used:
# [1] = Method: In the initial tests as reported in PCT/IB2010/051373 tablets were administered three times daily.
# Four selected outcome variables were used in this preliminary analysis: Global improvement (GI), Tinnitus Handicap Inventory (THI) and Tinnitus Impairment Questionnaire (TBF 12) questionnaires and Minimum Masking Levels (MML). The changes on the outcome variables were obtained by subtracting week 12's scores from the screening scores. The presence of a negative result means a decrease on values.
# In Table 2 the changes on outcome variables are listed by Global Improvement (GI) classification, as follows: GI 1=much better; 2=better; 3=slightly better; 4=no change; 5=slightly worse; 6=worse; 7=much worse; THI: Tinnitus Handicap Inventory, TBF 12: Tinnitus Impairment Questionnaire; MML: minimal masking levels, measured in dB HL (Hearing Level).
# Four different criteria were established to determine whether a subject responded or not to treatment (see Table 3).
# [2] = 10 to 40 mg over a 12 week period; 120 fibromyalgia patients; cited from earlier work
smiles,measurement,setting,value
CN(C)CCC=C1c2ccccc2C=Cc2ccccc21 [Cyclobenzaprine],Responders n,[1]; Criteria 2: Criteria 1 + decrease on THI,11
same,Tolerability,[1]; common side effects like constipation and dry mouth may be experienced,tolerated well by most subjects
same,Number of subjects Better or Much Better on GI,"[1]; of 15 subjects, FIG. 1",8 subjects
same,"Number of subjects Slightly Better, Better or Much Better on GI","[1]; of 15 subjects, FIG. 1",11 subjects
same,Number of subjects with changes on tinnitus pitch,[1]; out of 15 subjects,5 subjects
same,Remark in place of MML change (intermittent tinnitus),"[1]; subject 3, MML not possible to measure",change on intensity and less episodes
same,Trial suspension due to side effects,[1]; subject 6,Trial suspended because of side effects
same,Course of Minimum Masking Levels (MML) during the tests,"[1]; subjects 4, 8, 9, 10 and 11, FIGS. 2-6",progressive reduction
same,Effect on tinnitus severity and tinnitus loudness,[1]; tested subjects,positive effect
same,Safety of administration,[1]; tested subjects,safe to administer
same,Quality of sleep and pain score,[2],significantly improved
same,Total number of tender points and muscle tightness,[2],reduction

# Source: US20130230586A1, “Treatment of Tinnitus and Related Auditory Dysfunctions” (LINK RESEARCH & GRANTS CORPORATION, priority 2010, published 2013)
